Read-outs that look alike come from different tables or passages of the source. Values belong to the molecule of their own block, whether it stands above or below them.
Tests used:
[1] = target: T1, bovine inositol monophosphatase (bovine enzyme, source not specified) (Bos taurus, UniProt P20456); experiment: Inhibition of bovine inositol monophosphatase (parallel comparison); format: biochemical; conditions: parallel experiment
T1 sequence (P20456 1-277): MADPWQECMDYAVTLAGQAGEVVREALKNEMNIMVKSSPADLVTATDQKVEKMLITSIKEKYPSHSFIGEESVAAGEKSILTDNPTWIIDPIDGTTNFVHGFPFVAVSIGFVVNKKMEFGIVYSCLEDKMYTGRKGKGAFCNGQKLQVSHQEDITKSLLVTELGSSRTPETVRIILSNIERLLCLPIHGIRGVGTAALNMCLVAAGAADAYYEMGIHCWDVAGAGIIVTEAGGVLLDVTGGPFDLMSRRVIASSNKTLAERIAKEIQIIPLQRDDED
Experimental: (§1) All comparisons are from data obtained in parallel experiments carried out in this study.
One unit of enzyme activity represents 1 μmol of substrate hydrolysed/min, at 37° C. […] Kinetic analyses were performed as described previously [Gee et al., supra].

[2] = target: T2, recombinant human brain inositol monophosphatase (IMP), SEQ. ID NO. 2, expressed in E. coli BL21-DE3 (Homo sapiens, UniProt P29218); experiment: Kinetics and inhibition of recombinant human inositol monophosphatase ([14C]inositol release from DL-Ins(1)P)
T2 sequence (P29218 1-277): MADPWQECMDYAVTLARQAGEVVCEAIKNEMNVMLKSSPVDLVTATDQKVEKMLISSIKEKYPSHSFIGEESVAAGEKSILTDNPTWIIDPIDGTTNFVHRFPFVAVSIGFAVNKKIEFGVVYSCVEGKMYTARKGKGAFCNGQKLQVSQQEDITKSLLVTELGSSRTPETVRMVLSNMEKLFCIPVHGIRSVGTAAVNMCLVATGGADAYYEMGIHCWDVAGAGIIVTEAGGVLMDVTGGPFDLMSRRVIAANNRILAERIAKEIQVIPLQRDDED
Experimental: Initial rates determined with several substrate concentrations were fitted to a Michaelis-Menten expression by non-linear least-squares regression analysis. […] Bovine brain values are as reported in Gee et al., supra, but confirmed here.
as §1
One unit of enzyme activity represents 1 μmol of substrate hydrolysed/min, at 37° C. Protein concentrations were determined by the method of Bradford [Bradford, M., (1976), Anal. Biochem., 72, pp. 248-252]. Kinetic analyses were performed as described previously [Gee et al., supra].

[3] = target: T3, native bovine brain inositol monophosphatase (Bos taurus, UniProt P20456); conditions: bovine brain enzyme, as reported in Gee et al., but confirmed here, cited from earlier work
T3 construct: both the native and recombinant bovine enzymes; from tissue; host or cells: bovine brain
T3 sequence (P20456 1-277): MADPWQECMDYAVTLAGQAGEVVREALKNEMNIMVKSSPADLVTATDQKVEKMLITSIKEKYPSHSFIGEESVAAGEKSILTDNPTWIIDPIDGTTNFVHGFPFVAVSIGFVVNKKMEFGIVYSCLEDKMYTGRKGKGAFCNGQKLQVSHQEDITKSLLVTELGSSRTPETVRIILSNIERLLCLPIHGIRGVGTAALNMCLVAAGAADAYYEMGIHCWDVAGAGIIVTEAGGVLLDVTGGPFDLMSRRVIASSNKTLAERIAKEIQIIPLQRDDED

[4] = substrate: O=P(O)(O)O[C@@H]1[C@H](O)[C@H](O)[C@@H](O)[C@H](O)[C@H]1O; experiment: purified protein, by the assay type; conditions: mean ± S.E.M. (n=3)

Ki ([1]; competitive inhibitor, read-out: apparent Ki): 1.1 µM
Ki [2]: 2.7 µM
Molecule: O=P(O)(O)O[C@H]1CC[C@H](O)C[C@H]1O [1S-phosphoryloxy-2R,4S-dihydroxycyclohexane]

Molecule: O=P(O)(O)O[C@@H]1[C@H](O)[C@H](O)[C@@H](O)[C@H](O)[C@H]1O (relative stereo) [DL-Ins(1)P]
Vmax ([3]; substrate DL-Ins(1)P): 13.3 ± 0.9 μmol/min per mg of protein
Km ([3]; read-out: Km for DL-Ins(1)P): 160 ± 20 µM

Molecule: O=P(O)(O)O [Pi]
Ki ([1]; read-out: Ki (Pi)): 500 µM
Ki ([2]; read-out: Ki (Pi), competitive inhibition, recombinant human IMP): 140 µM

B1: recombinant bovine inositol monophosphatase (Bos taurus) (protein)
chain: MADPWQECMDYAVTLAGQAGEVVREALKNEMNIMVKSSPADLVTATDQKVEKMLITSIKEKYPSHSFIGEESVAAGEKSILTDNPTWIIDPIDGTTNFVHGFPFVAVSIGFVVNKKMEFGIVYSCLEDKMYTGRKGKGAFCNGQKLQVSHQEDITKSLLVTELGSSRTPETVRIILSNIERLLCLPIHGIRGVGTAALNMCLVAAGAADAYYEMGIHCWDVAGAGIIVTEAGGVLLDVTGGPFDLMSRRVIASSNKTLAERIAKEIQIIPLQRDDED
Km ([4]; other: bovine recombinant enzyme, 37.0 °C): 120 ± 7 µM

B2: recombinant human brain inositol monophosphatase (IMP), SEQ. ID NO. 2, expressed in E. coli BL21-DE3 (Homo sapiens) (protein)
chain: MADPWQECMDYAVTLARQAGEVVCEAIKNEMNVMLKSSPVDLVTATDQKVEKMLISSIKEKYPSHSFIGEESVAAGEKSILTDNPTWIIDPIDGTTNFVHRFPFVAVSIGFAVNKKIEFGVVYSCVEGKMYTARKGKGAFCNGQKLQVSQQEDITKSLLVTELGSSRTPETVRMVLSNMEKLFCIPVHGIRSVGTAAVNMCLVATGGADAYYEMGIHCWDVAGAGIIVTEAGGVLMDVTGGPFDLMSRRVIAANNRILAERIAKEIQVIPLQRDDED
Km ([4]; other: human recombinant enzyme, 37° C.): 75 ± 3 µM

B3: native human platelet-derived inositol monophosphatase (Homo sapiens) (protein)
chain: MADPWQECMDYAVTLARQAGEVVCEAIKNEMNVMLKSSPVDLVTATDQKVEKMLISSIKEKYPSHSFIGEESVAAGEKSILTDNPTWIIDPIDGTTNFVHRFPFVAVSIGFAVNKKIEFGVVYSCVEGKMYTARKGKGAFCNGQKLQVSQQEDITKSLLVTELGSSRTPETVRMVLSNMEKLFCIPVHGIRSVGTAAVNMCLVATGGADAYYEMGIHCWDVAGAGIIVTEAGGVLMDVTGGPFDLMSRRVIAANNRILAERIAKEIQVIPLQRDDED
Km ([4]; other: human platelet enzyme, 37.0 °C): 108 ± 3 µM

Source: patent US5710015A, “cDNA cloning of inositol monophosphatase” (Merck, Sharp & Dohme, Ltd., priority 1992, dated 1998)
